Test results as given in patent US6875451B2, “Compositions and methods for the treatment of primary and metastatic neoplastic diseases using arsenic compounds” (PolaRx Biopharmaceuticals Inc., priority 1997, dated 2005).

Experiments:
Type in all cases: cell-based
[1] = tested on: A498; assay: SRB growth assay, 6 days exposure, renal cancer; conditions: A498, 6 days
Description: (§1) Arsenic trioxide (1 mg/ml, 10 mg/ampoule, manufactured by Taylor Pharmaceuticals, Decatur, Ill.) was tested at five concentrations each at 10-fold dilutions, i.e., 10^−5, 10^−6, 10^−7, 10^−8 and 10^−9 μg/ml.
(§2) The in vitro tests were performed by incubating the test cells in the presence of the indicated concentration of arsenic trioxide under standard culture conditions for a designated period of time, which is followed by a sulforhodamine B (SRB) protein assay to estimate cell viability or growth. The cell lines are organized into subpanels according to the origin of the cell lines, e.g., leukemia, breast cancer, etc. A description of the cell lines and method of testing is described in Monk et al. (1997, Anticancer Drug Des. 12:533-41) and Weinstein et al., (1997, Science 275:343-9), which are incorporated herein in their entirety.
(§3) The measurement of an effect is expressed in Percentage Growth (PG). The measured effect of the compound on a cell line is calculated according to one or the other of the following two expressions: If (Mean ODtest−Mean ODzero)≧0. then PG=100×(Mean ODtest−Mean ODzero)/(Mean ODctrl−Mean ODzero) If (Mean ODtest−Mean ODzero)<0. then PG=100×(Mean ODtest−Mean ODzero)/(Mean ODzero where: • Mean ODzero=the average of optical density measurements of SRB-derived color just before exposure of cells to the test compounds; • Mean ODtest=the average of optical density measurements of SRB-derived color after exposure of cells to the test compound for a designated period of time; and • Mean ODctrl=the average of optical density measurements of SRB-derived color after with no exposure of cells to the test compound for a designated period of time
(§4) The first two columns describe the subpanel (e.g., leukemia) and cell line (e.g., CCRF-CEM) involved. The next two columns list the Mean ODzero and Mean ODctrl; the next five columns list the Mean ODtest for each of five different concentrations. Each concentration is expressed as the log10 (molar or μg/ml). The next five columns list the calculated PGs for each concentration. The response parameters GI50, TGI and LC50 are interpolated values representing the concentrations at which the PG is +50, 0, and −50, respectively. Sometimes these response parameters cannot be obtained by interpolation. If, for instance, all of the PGs in a given row exceed +50, then none of the three parameters can be obtained by interpolation. In such a case, the value given for each response parameter is the highest concentration tested and is preceded by a “>” sign. This practice is extended similarly to the other possible situations where a response parameter cannot be obtained by interpolation.
(§5) In the first set, the cells from 56 different cancer cell lines were exposed to five concentrations of arsenic trioxide continuously for two days prior to performing the SRB assay. In the second set, the cells from 50 different cell lines (a subset of the first 56 cell lines, plus the renal cancer cell line 786-0) were exposed continuously for six days prior to the SRB assay.

[2] = tested on: RXF 393; assay: SRB growth assay, 6 days exposure, renal cancer; conditions: RXF393, 6 days
Description: as §1, §2, §3, §4, §5

[3] = tested on: S12C; assay: SRB growth assay, 6 days exposure, renal cancer
Description: as §1, §2, §3, §4, §5

[4] = tested on: CAKI-1; assay: SRB growth assay, 6 days exposure, renal cancer; conditions: CAKI-1, 6 days
Description: as §1, §2, §3, §4, §5

[5] = tested on: HCT-15; assay: SRB growth assay, 2 days exposure, colon cancer
Description: as §1, §2, §3, §4, §5

[6] = tested on: KM12; assay: SRB growth assay, 2 days exposure, colon cancer
Description: as §1, §2, §3, §4, §5

[7] = tested on: HCT-116; assay: SRB growth assay, 2 days exposure, colon cancer
Description: as §1, §2, §3, §4, §5

[8] = tested on: COLO 205; assay: SRB growth assay, 2 days exposure, colon cancer
Description: as §1, §2, §3, §4, §5

[9] = tested on: SW-620; assay: SRB growth assay, 2 days exposure, colon cancer
Description: as §1, §2, §3, §4, §5

[10] = tested on: HT29; assay: SRB growth assay, 2 days exposure, colon cancer
Description: as §1, §2, §3, §4, §5

Substance: arsenic trioxide
- TGI [1]: 4.85E−06
- Mean Optical Densities ([1]; Log 10 Concentration −4.9): 0.025
- Percent Growth ([1]; Log 10 Concentration −4.9): −52%
- Mean Optical Densities ([1]; Log 10 Concentration −5.9): 0.558
- Percent Growth ([1]; Log 10 Concentration −5.9): 73%
- Mean Optical Densities ([1]; Log 10 Concentration −6.9): 0.837
- Percent Growth ([1]; Log 10 Concentration −6.9): 114%
- Mean Optical Densities ([1]; Log 10 Concentration −7.9): 0.764
- Percent Growth ([1]; Log 10 Concentration −7.9): 103%
- Mean Optical Densities ([1]; Log 10 Concentration −8.9): 0.826
- Percent Growth ([1]; Log 10 Concentration −8.9): 112%
- TGI [2]: 2.96E−06
- Mean Optical Densities ([2]; Log 10 Concentration −4.9): 0.017
- Percent Growth ([2]; Log 10 Concentration −4.9): −91%
- Mean Optical Densities ([2]; Log 10 Concentration −5.9): 0.909
- Percent Growth ([2]; Log 10 Concentration −5.9): 54%
- Mean Optical Densities ([2]; Log 10 Concentration −6.9): 1.727
- Percent Growth ([2]; Log 10 Concentration −6.9): 116%
- Mean Optical Densities ([2]; Log 10 Concentration −7.9): 1.301
- Percent Growth ([2]; Log 10 Concentration −7.9): 84%
- Mean Optical Densities ([2]; Log 10 Concentration −8.9): 1.327
- Percent Growth ([2]; Log 10 Concentration −8.9): 86%
- LC50 (concentration killing 50% of cells) [3]: > 12.6 µM
- TGI [3]: 5.67E−06
- Mean Optical Densities ([3]; Log 10 Concentration −4.9): 0.013
- Percent Growth ([3]; Log 10 Concentration −4.9): −46%
- Mean Optical Densities ([3]; Log 10 Concentration −5.9): 0.829
- Percent Growth ([3]; Log 10 Concentration −5.9): 86%
- Mean Optical Densities ([3]; Log 10 Concentration −6.9): 1.113
- Percent Growth ([3]; Log 10 Concentration −6.9): 117%
- Mean Optical Densities ([3]; Log 10 Concentration −7.9): 1.141
- Percent Growth ([3]; Log 10 Concentration −7.9): 120%
- Mean Optical Densities ([3]; Log 10 Concentration −8.9): 0.882
- Percent Growth ([3]; Log 10 Concentration −8.9): 92%
- TGI [4]: 2.43E−06
- Mean Optical Densities ([4]; Log 10 Concentration −4.9): 0.004
- Percent Growth ([4]; Log 10 Concentration −4.9): −88%
- Mean Optical Densities ([4]; Log 10 Concentration −5.9): 0.491
- Percent Growth ([4]; Log 10 Concentration −5.9): 35%
- Mean Optical Densities ([4]; Log 10 Concentration −6.9): 1.573
- Percent Growth ([4]; Log 10 Concentration −6.9): 117%
- Mean Optical Densities ([4]; Log 10 Concentration −7.9): 1.725
- Percent Growth ([4]; Log 10 Concentration −7.9): 128%
- Mean Optical Densities ([4]; Log 10 Concentration −8.9): 1.254
- Percent Growth ([4]; Log 10 Concentration −8.9): 93%
- TGI [5]: >0.0126 ng/mL
- Percent Growth ([5]; log10 conc −4.9): 20%
- Percent Growth ([5]; log10 conc −5.9): 93%
- Percent Growth ([5]; log10 conc −6.9): 104%
- Percent Growth ([5]; log10 conc −7.9): 100%
- Percent Growth ([5]; log10 conc −8.9): 113%
- TGI [6]: >0.0126 ng/mL
- Percent Growth ([6]; log10 conc −4.9): 68%
- Percent Growth ([6]; log10 conc −5.9): 99%
- Percent Growth ([6]; log10 conc −6.9): 106%
- Percent Growth ([6]; log10 conc −7.9): 98%
- Percent Growth ([6]; log10 conc −8.9): 101%
- TGI [7]: >0.0126 ng/mL
- Percent Growth ([7]; log10 conc −4.9): 30%
- Percent Growth ([7]; log10 conc −5.9): 86%
- Percent Growth ([7]; log10 conc −6.9): 93%
- Percent Growth ([7]; log10 conc −7.9): 93%
- Percent Growth ([7]; log10 conc −8.9): 95%
- TGI [8]: >0.0126 ng/mL
- Percent Growth ([8]; log10 conc −4.9): 57%
- Percent Growth ([8]; log10 conc −5.9): 104%
- Percent Growth ([8]; log10 conc −6.9): 117%
- Percent Growth ([8]; log10 conc −7.9): 102%
- Percent Growth ([8]; log10 conc −8.9): 103%
- TGI [9]: >0.0126 ng/mL
- Percent Growth ([9]; log10 conc −4.9): 16%
- Percent Growth ([9]; log10 conc −5.9): 85%
- Percent Growth ([9]; log10 conc −6.9): 96%
- Percent Growth ([9]; log10 conc −7.9): 98%
- Percent Growth ([9]; log10 conc −8.9): 102%
- TGI [10]: >0.0126 ng/mL
- Percent Growth ([10]; log10 conc −4.9): 15%
- Percent Growth ([10]; log10 conc −5.9): 80%
- Percent Growth ([10]; log10 conc −6.9): 100%
- Percent Growth ([10]; log10 conc −7.9): 104%
- Percent Growth ([10]; log10 conc −8.9): 112%
